From patent publication US10093673B2, “Tetracyclic pyridone compounds as antivirals” (Novartis AG, priority 2016, dated 2018)

What follows are compounds tested on HBsAg secretion (assay: HBsAg assay (ELISA of secreted HBsAg, HepG2-Clone42 cells)). Settings: Hepatitis B virus, read-out: HBsAg EC50, HepG2-Clone42 cells, HBsAg secretion reduced 50% vs DMSO control.
Format: cell-based, HBV
Procedure: HepG2-Clone42, a Tet-inducible HBV-expressing cell line with a stably integrated 1.3mer copy of the HBV ayw strain, was generated based on the Tet-inducible HepAD38 cell line with slight modifications. Ladner S K, et al., Antimicrobial Agents and Chemotherapy. 41(8):1715-1720 (1997). HepG2-Clone42 cells were cultured in DMEM/F-12+Glutamax™ (Life Technologies, Carlsbad, Calif., USA), supplemented with 10% fetal bovine serum (Life Technologies), G-418 (Corning, Manassas, Va., USA) at a final concentration of 0.5 mg/mL, and 5 μg/mL Doxycycline (Sigma, St. Louis, Mo., USA) and maintained in 5% CO2 at 37° C.
HepG2-Clone42 cells were seeded in into black clear-bottom 96-well plates at a concentration of 6.0×10^4 cells/well. 24 hours post-seeding, the cells were treated with 200 μl/well of media containing five-fold serial dilutions of compounds in DMSO. DMSO alone was used as the no drug control. The final DMSO concentration in all wells was 0.5%.
The HBsAg ELISA kit (Alpha Diagnostic International, San Antonio, Tex., USE, Catalog #4110) was used to determine the level (semi-quantitative) of secreted HBV sAg.
The HBSAg ELISA assay was performed following the manufacturer's protocol as described.
Step 1. Pipet 100 μL each of compound or DMSO treated samples into HBsAg ELISA plates. Seal plates and incubate at room temp for 60 minutes.
Step 2. Aspirate samples and wash three times with Wash Buffer. Dispense 100μ of antibody-HRP conjugate to each well. Incubate at room temp for 30 minutes.
Step 3. Aspirate samples and wash three times with Wash Buffer. Add 100 μL of TMB Substrate to all wells and incubate 15 minutes at room temp.
Step 4. Dispense 100 μL of Stop Solution to each well. Measure absorbance of ELISA plate at 450 nm.
EC50 values were determined as follows: • 1. Determine the percent of HBsAg secretion inhibition. Calculate the percent inhibition on of HBsAg secretion inhibition using the following equation: 100×(XC−MB)/(MD−MB) • where XC is the absorbance signal from compound-treated well; MB is average absorbance signal (background signal) for column 12 (no cells+HBsAg ELISA sample buffer) and MD is average absorbance signal from DMSO-treated wells. Then calculate EC50 values by non-linear regression using a four parameter curve logistic equation. The curve fit model employed is XLFit Dose Response One Site Model 204: y=(A+((B−A)/(1+(10^((C−x)*D))))) where A is the minimum y value, B is the maximum y value, C is the log EC50 value, and D is the slope factor. High Throughput Solubility Measurement • 1. Transfer 20 ul of 10 mM DMSO stock solution into a 96 deep well plate labeled as […] and 5 ul to another plate labeled as compound standard plate. • 2. Place the buffer plate in a Multi-Tainer MT-4 container (FTS Systems). Freeze dry overnight to remove DMSO. • 3. Add 100 ul of Cl-free PBS (pH 6.8) to the dried compound in the buffer plate and 95 ul of DMSO to the standard plate. • 4. The buffer plate is be sonicated in a water bath for 10 min. • 5. The two plates are then placed onto the VWR orbital shaker to equilibrate for 24 hours at room temperature. • 6. The buffer plate is centrifuged at 4000 rpm for 30 min. • 7. Transfer 10 ul aliquots of supernatant from the buffer plate to a sample plate and dilute 5 fold. • 8. Inject both compound standard and sample into the UPLC/UV/CLND/MS to generate multi detector qualitative and quantitive analytical data. • 9. Data was processed with Xcalibur. CLND equimolar response was used for measuring compound concentration of DMSO solution. UV270 nm or MS relative ratio was used for solubility determination.

Row | SMILES | EC50
1 | COCCCOc1cc2c(cc1Cl)-c1cc(=O)c(C(=O)O)cn1[C@@H]1[C@H]2CCC1(C)C [Compound 5.2, (3aR,12bS)-10-chloro-11-(3-methoxypropoxy)-3,3-dimethyl-7-oxo-1,2,3,3a,7,12b-hexahydrocyclopenta[c]pyrido[2,1-a]isoquinoline-6-carboxylic acid] | 0.1 nM
2 | COCCCOc1cc2c(cc1OC)-c1c(F)c(=O)c(C(=O)O)cn1[C@H]1[C@@H]2OCC1(C)C [Compound 7.1, (3aR,12bR)-8-fluoro-10-methoxy-11-(3-methoxypropoxy)-3,3-dimethyl-7-oxo-3,3a,7,12b-tetrahydro-2H-furo[3,2-c]pyrido[2,1-a]isoquinoline-6-carboxylic acid] | 0.8 nM
3 | COCCCOc1cc2c(cc1OC)-c1cc(=O)c(C(=O)O)cn1C1CCCC21 (stereo not drawn) [Compound 6.1, 10-methoxy-11-(3-methoxypropoxy)-7-oxo-1,2,3,3a,7,12b-hexahydrocyclopenta[c]pyrido[2,1-a]isoquinoline-6-carboxylic acid] | 9 nM
4 | COCCCOc1cc2c(cc1OC)-c1cc(=O)c(C(=O)O)cn1[C@H]1[C@@H]2COC1(C)C [Compound 8.1, (3aS,12bR)-10-methoxy-11-(3-methoxypropoxy)-3,3-dimethyl-7-oxo-3,3a,7,12b-tetrahydro-1H-furo[3,4-c]pyrido[2,1-a]isoquinoline-6-carboxylic acid] | 1 nM
5 | COCCCOc1cc2c(cc1OC)-c1c(F)c(=O)c(C(=O)O)cn1C1[C@H]2OCC1(C)C (stereo partly drawn) [Compound 7.2] | 90 nM
6 | COCCCOc1cc2c(cc1OC)-c1cc(=O)c(C(=O)O)cn1[C@H]1[C@H]2CCC1(C)C (racemic) [rac-2, 10-methoxy-11-(3-methoxypropoxy)-3,3-dimethyl-7-oxo-1,2,3,3a,7,12b-hexahydrocyclopenta[c]pyrido[2,1-a]isoquinoline-6-carboxylic acid] | 460 nM
7 | COCCCOc1cc2c(cc1OC)-c1c(F)c(=O)c(C(=O)O)cn1[C@@H]1[C@H]2CCC1(C)C (racemic) [Compound 3.2] | 740 nM
8 | COCCCOc1cc2c(cc1OC)-c1cc(=O)c(C(=O)O)cn1[C@@H]1[C@H]2CCC1(C)C [Compound 1.2, (3aR,12bS)-10-methoxy-11-(3-methoxypropoxy)-3,3-dimethyl-7-oxo-1,2,3,3a,7,12b-hexahydrocyclopenta[c]pyrido[2,1-a]isoquinoline-6-carboxylic acid] | 13 nM
9 | COCCCOc1cc2c(cc1Cl)-c1cc(=O)c(C(=O)O)cn1[C@H]1[C@@H]2CCC1(C)C (stereo in doubt) [Compound 5.1, (3aS,12bR)-10-chloro-11-(3-methoxypropoxy)-3,3-dimethyl-7-oxo-1,2,3,3a,7,12b-hexahydrocyclopenta[c]pyrido[2,1-a]isoquinoline-6-carboxylic acid] | 6 nM

Same assay, conditions: read-out: HBsAg EC50; HepG2-Clone42 cells, HBsAg secretion reduced 50% vs DMSO control

Row | SMILES | EC50
10 | COCCCOc1cc2c(cc1OC)-c1cc(=O)c(C(=O)O)cn1C1C2CCCC1(C)C (single isomer, unassigned) [Compound 9.2, 11-methoxy-12-(3-methoxypropoxy)-4,4-dimethyl-8-oxo-2,3,4,4a,8,13b-hexahydro-1H-pyrido[1,2-f]phenanthridine-7-carboxylic acid] | 303 nM
11 | COCCCOc1cc2c(cc1OC)-c1cc(=O)c(C(=O)O)cn1C1CCCC21 (stereo not drawn) [Compound 6.2, 10-methoxy-11-(3-methoxypropoxy)-7-oxo-1,2,3,3a,7,12b-hexahydrocyclopenta[c]pyrido[2,1-a]isoquinoline-6-carboxylic acid] | 5 nM
12 | COCCCOc1cc2c(cc1OC)-c1cc(=O)c(C(=O)O)cn1C1C2CCCC1(C)C (single isomer, unassigned) [Compound 9.1, 11-methoxy-12-(3-methoxypropoxy)-4,4-dimethyl-8-oxo-2,3,4,4a,8,13b-hexahydro-1H-pyrido[1,2-f]phenanthridine-7-carboxylic acid] | 9 nM
